Where “and” joins values, the source holds several entries; their conditions need not be identical. Equal entries are not always repeated. Where two headings read alike, the source gives them in different places.
Experiments:
human A2BAR [1] = target: T1, human A2BAR (Homo sapiens, UniProt P29275); assay: [3H]PSB-603 competition association assay; assay type: binding; conditions: for RT: RT = 1/koff; for Kd: read-out: Kinetic KD (koff/kon); for koff: read-out: koff (converted); for kon: read-out: kon (converted)
T1 construct: host or cells: CHO-spap
T1 sequence (P29275 1-332): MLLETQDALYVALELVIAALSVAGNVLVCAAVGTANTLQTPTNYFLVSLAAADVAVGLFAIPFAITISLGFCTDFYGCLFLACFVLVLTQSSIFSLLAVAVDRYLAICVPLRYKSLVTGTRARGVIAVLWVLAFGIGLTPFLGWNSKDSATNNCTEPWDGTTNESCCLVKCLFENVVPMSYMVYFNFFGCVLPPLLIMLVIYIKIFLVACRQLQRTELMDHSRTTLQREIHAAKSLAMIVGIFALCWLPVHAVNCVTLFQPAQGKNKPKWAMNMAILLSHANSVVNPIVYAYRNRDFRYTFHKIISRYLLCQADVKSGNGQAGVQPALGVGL
Protocol: In all radioligand binding experiments, CHO-spap-hA2BAR membranes were thawed and homogenized using an Ultra Turrax homogenizer at 24,000 rpm (IKA-Werke GmbH & Co.KG, Staufen, Germany), diluted in assay buffer to the desired concentration (10–30 μg per well or Eppendorf tube). All materials were brought to 25 °C, 30 min prior to the experiment. ZM241385 (10 μM) was used to determine nonspecific binding (NSB).
Addition of CHO-spap-hA2BAR membrane aliquots initiated the association. The amount of receptor-bound radioligand was determined at different time points up to 3 hr. After 3 hr the incubation was terminated and samples were obtained as described under “Displacement experiments”.
All competition association data were globally fitted.

[2] = target: T2, hA2BAR (CHO-spap-hA2BAR cells) (Homo sapiens, UniProt P29275); assay: Label-free whole-cell washout assay; assay type: cell-based; conditions: 30 × IC50 antagonist 4 hr, NECA EC80, control without antagonist = 100%
T2 construct: host or cells: CHO-spap
T2 sequence (P29275 1-332): T1 sequence (P29275 1-332)
Protocol: The assay followed the same initial steps as described in “Determination of pIC50 values for hA2BAR antagonists”. […] Subsequently, wells were washed by aspiration of the medium, followed by the addition of 95 μL fresh serum free medium. For the unwashed cells, the medium was not removed but was pipetted up and down to simulate any mechanical cell stress.
Data were analyzed using GraphPad Prism 8.0.
Subsequently, a washout assay was performed and the cell response to the compounds was monitored and evaluated (Fig. 7). […] For the evaluation of the unwashed condition, the medium was not refreshed but was pipetted up and down in order to mimic the possible mechanical stress induced to the washed cells.

human A2BAR [3] = target: T1, human A2BAR; assay: [3H]PSB-603 radioligand washout assay on membranes; assay type: binding; conditions: 10 × IC50, 2 hr pre-incubation, 4x washed, 25 °C
Protocol: Were performed at 25 °C and in a total volume of 400 μL. […] Subsequently, the samples were centrifuged at 13200 rpm (16 100g) at 4 °C for 5 min and the supernatant containing unbound ligand was removed. Pellets were resuspended in 1 mL of assay buffer, and samples were incubated for 10 min at 25 °C in the thermomixer. After four centrifugation and washing cycles in total, supernatant was discarded and the membranes were resuspended in a total volume of 400 μL containing 1.5 nM [^3H]PSB-603. After 2 hr at 25 °C incubations were terminated by rapid filtration through GF/C filters using a Brandel harvester and the samples were obtained as described under “Saturation binding experiments”.
Both the washed and the unwashed conditions were assessed. For the washed condition, the unlabeled compounds were incubated with the target for 2 hr, followed by four wash and centrifugation cycles. Subsequently, [^3H]PSB-603 was co-incubated which led to competition of the radioligand with the unlabeled ligand still bound after the washing procedure. For the unwashed condition no washing was performed before the determination of radioligand displacement. Based on the experimental set-up, the long RT compound and the covalent ligand would be predicted to remain bound to A2BARs, as they would not be easily removed during the washing steps, and thus to result in lower radioligand binding.

human A2BAR [4] = target: T1, human A2BAR; assay: [3H]PSB-603 displacement on CHO-spap-hA2BAR membranes; assay type: binding
A2A adenosine receptor [5] = target: A2A adenosine receptor (Rattus norvegicus, UniProt P30543); assay: Radioligand binding, rat A2A ([3H]CGS21680, HEK-293); conditions: rat (r), HEK-293, [3H]CGS21680
A2B adenosine receptor [6] = target: T3, A2B adenosine receptor (Rattus norvegicus, UniProt P29276); assay: Radioligand binding, rat A2B ([125I]I-ABOPX, HEK-293); conditions: rat (r), HEK-293, [125I]I-ABOPX
T3 sequence (P29276 1-332): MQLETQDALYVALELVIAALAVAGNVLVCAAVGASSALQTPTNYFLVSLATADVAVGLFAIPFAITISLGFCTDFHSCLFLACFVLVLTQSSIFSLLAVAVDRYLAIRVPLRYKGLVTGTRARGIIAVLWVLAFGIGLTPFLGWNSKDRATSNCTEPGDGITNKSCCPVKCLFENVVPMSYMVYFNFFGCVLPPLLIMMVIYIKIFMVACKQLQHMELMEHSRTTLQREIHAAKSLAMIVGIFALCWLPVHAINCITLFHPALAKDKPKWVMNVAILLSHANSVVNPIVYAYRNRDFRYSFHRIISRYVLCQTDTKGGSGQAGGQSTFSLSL

A2A adenosine receptor [7] = target: A2A adenosine receptor (Homo sapiens, UniProt P29274); assay: Radioligand binding, human A2A ([3H]CGS21680, HEK-293); conditions: HEK-293, [3H]CGS21680
A1 adenosine receptor [8] = target: T4, A1 adenosine receptor (Rattus norvegicus, UniProt P25099); assay: Radioligand binding, rat A1 ([3H]R-PIA, HEK-293); conditions: HEK-293, [3H]R-PIA
T4 sequence (P25099 1-326): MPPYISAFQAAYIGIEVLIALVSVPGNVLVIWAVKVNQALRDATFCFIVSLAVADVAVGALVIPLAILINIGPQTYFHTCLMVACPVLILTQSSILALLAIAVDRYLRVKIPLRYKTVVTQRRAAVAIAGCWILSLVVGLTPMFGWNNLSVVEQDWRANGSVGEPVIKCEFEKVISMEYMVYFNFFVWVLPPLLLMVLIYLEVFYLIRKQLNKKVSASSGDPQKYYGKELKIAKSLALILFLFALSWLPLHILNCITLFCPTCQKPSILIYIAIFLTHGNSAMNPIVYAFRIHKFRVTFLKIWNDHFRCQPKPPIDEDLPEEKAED
Source text: (§1) The A2B receptor selectivity was generally low, especially at the rat A2B receptor.

A2B adenosine receptor [9] = target: T5, A2B adenosine receptor (Homo sapiens, UniProt P29275); assay: Radioligand binding, human A2B ([125I]I-ABOPX, HEK-293); conditions: HEK-293, [125I]I-ABOPX
T5 sequence (P29275 1-332): T1 sequence (P29275 1-332)

A3 adenosine receptor = target: T6, A3 adenosine receptor (Homo sapiens, UniProt P0DMS8); assay: Radioligand binding, human A3 ([125I]I-AB-MECA, HEK-293); conditions: HEK-293, [125I]I-AB-MECA
T6 sequence (P0DMS8 1-318): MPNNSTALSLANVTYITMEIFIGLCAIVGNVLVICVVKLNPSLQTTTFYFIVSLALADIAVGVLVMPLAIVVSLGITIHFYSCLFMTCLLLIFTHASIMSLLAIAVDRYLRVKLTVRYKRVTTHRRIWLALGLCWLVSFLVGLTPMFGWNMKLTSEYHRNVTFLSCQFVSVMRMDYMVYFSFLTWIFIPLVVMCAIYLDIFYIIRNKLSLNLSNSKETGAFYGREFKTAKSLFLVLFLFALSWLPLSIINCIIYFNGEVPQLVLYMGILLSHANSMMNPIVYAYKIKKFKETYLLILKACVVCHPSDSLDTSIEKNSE
Source text: as §1

A1 adenosine receptor [10] = target: T7, A1 adenosine receptor (Homo sapiens, UniProt P30542); assay: Radioligand binding, human A1 ([3H]R-PIA, HEK-293); conditions: HEK-293, [3H]R-PIA
T7 sequence (P30542 1-326): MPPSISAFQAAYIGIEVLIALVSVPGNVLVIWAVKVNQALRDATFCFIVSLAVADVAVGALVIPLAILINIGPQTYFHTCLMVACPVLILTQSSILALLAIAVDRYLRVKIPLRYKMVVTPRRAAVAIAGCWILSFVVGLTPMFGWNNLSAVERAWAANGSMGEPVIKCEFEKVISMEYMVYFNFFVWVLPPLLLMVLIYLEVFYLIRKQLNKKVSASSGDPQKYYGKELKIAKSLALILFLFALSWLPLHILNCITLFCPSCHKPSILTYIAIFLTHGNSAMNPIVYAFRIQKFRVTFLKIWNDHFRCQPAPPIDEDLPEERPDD
Source text: as §1

CHO-spap cells = assay: Label-free whole-cell assay on empty CHO-spap cells; assay type: cell-based; conditions: NECA 10 pM – 1 μM
Protocol: After maintaining at room temperature for about 30 min, the E-plate was placed into the recording station housed in a 37 °C and 5% CO2 incubator.

[11] = competing ligand at 1.0-fold IC50, up to 3 hr, 25 °C
[12] = […] [3H]PSB-603, 2 h, 25 °C, read-out: Ki (converted)

Chain of A2A adenosine receptor (Homo sapiens, UniProt P29274) (P29274 whole entry): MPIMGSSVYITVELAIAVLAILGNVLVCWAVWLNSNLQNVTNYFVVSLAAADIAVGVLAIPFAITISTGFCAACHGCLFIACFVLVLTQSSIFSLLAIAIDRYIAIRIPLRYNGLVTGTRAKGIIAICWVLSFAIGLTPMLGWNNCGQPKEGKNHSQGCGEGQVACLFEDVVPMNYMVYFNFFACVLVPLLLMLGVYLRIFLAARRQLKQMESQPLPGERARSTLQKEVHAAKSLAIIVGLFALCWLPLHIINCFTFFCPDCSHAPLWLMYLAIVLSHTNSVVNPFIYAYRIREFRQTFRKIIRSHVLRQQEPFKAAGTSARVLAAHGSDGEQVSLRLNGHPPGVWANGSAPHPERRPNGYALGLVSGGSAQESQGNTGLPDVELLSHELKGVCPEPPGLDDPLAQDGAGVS
Chain of A2A adenosine receptor (Rattus norvegicus, UniProt P30543) (P30543 whole entry): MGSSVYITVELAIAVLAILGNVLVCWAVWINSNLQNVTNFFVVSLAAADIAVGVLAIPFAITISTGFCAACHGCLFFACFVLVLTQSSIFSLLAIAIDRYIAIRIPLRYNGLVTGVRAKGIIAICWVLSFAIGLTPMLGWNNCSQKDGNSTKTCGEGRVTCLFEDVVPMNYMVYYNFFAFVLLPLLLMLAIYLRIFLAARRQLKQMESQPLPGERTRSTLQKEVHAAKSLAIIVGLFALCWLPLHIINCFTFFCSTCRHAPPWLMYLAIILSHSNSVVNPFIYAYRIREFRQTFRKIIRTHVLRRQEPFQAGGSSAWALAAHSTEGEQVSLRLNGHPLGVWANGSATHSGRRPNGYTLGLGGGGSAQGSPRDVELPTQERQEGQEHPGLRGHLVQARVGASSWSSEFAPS

Structure (SMILES) | RT (human A2BAR [1]; [11]) | Kd (human A2BAR [1]) | koff (human A2BAR [1]) | kon (human A2BAR [1]) | washout - %AUC, 1x washed (NECA signaling) [2] | washout - %AUC, unwashed (NECA signaling) [2] | A2BARs still occupied by ligand after the washing cycles (human A2BAR [3]) | compound removed (washed away) during the washing procedure (human A2BAR [3]) | Ki (human A2BAR [4]; [12]) | Ki (A2A adenosine receptor [5]) | Ki (A2B adenosine receptor [6]) | Ki (A2A adenosine receptor [7]) | Ki (A1 adenosine receptor [8]) | Ki (A2B adenosine receptor [9]) | Ki (A3 adenosine receptor) | Ki (A1 adenosine receptor [10]) | Kinetic KD (koff/kon) (human A2BAR [1]; [11]) | Ki (human A2BAR [4]; Ki) | response to NECA (CHO-spap cells)
CCCn1c(=O)c2[nH]c(-c3ccc(OCC(=O)Nc4ccc(C(=O)OC)cc4)cc3)nc2n(CCC)c1=O [Compound 17] | 87 min and 87 ± 29 min | 1.8 ± 0.62 nM | 0.000183 s⁻¹ | 100000 M⁻¹ s⁻¹ | 19 ± 6% | 10 ± 3% | 44% | 56% | 2.29 nM | – | – | – | – | – | – | – | – | – | –
CCCn1c(=O)c2[nH]c(-c3ccc(OCC(=O)Nc4ccc(C(=O)NC)cc4)cc3)nc2n(CCC)c1=O [Compound 18] | 8 min and 8.0 min and 8.0 ± 0.2 min | 10 ± 0.89 nM | 0.00208 s⁻¹ | 200000 M⁻¹ s⁻¹ | 68 ± 7% | 12 ± 1% | – | 85% | 19.9 nM | – | – | – | – | – | – | – | – | – | –
CCCn1c(=O)c2[nH]c(-c3ccc(OCC(=O)Nc4ccc(N=C=S)cc4)cc3)nc2n(CCC)c1=O [Compound 29, 2-(4-(2,6-dioxo-1,3-dipropyl-2,3,6,7-tetrahydro-1H-purin-8-yl)phenoxy)-N-(4-isothiocyanatophenyl)acetamide] | Covalent mechanism (see text) | – | – | – | – | – | – | 18% | – | – | – | – | – | – | – | – | Covalent mechanism (see text) | 9.28 nM | –
CCNC(=O)[C@H]1O[C@@H](n2cnc3c(N)ncnc32)[C@H](O)[C@@H]1O [NECA, 5^′-N-ethylcarboxamidoadenosine] | – | – | – | – | – | – | – | – | – | – | – | – | – | – | – | – | – | – | No response

Further lines, with some results ahead:

RT (human A2BAR [1]; [11]) | Kd (human A2BAR [1]) | koff (human A2BAR [1]) | kon (human A2BAR [1]) | washout - %AUC, 1x washed (NECA signaling) [2] | washout - %AUC, unwashed (NECA signaling) [2] | A2BARs still occupied by ligand after the washing cycles (human A2BAR [3]) | compound removed (washed away) during the washing procedure (human A2BAR [3]) | Ki (human A2BAR [4]; [12]) | Ki (A2A adenosine receptor [5]) | Ki (A2B adenosine receptor [6]) | Ki (A2A adenosine receptor [7]) | Ki (A1 adenosine receptor [8]) | Ki (A2B adenosine receptor [9]) | Ki (A3 adenosine receptor) | Ki (A1 adenosine receptor [10]) | Structure (SMILES) | Kinetic KD (koff/kon) (human A2BAR [1]; [11]) | Ki (human A2BAR [4]; Ki) | response to NECA (CHO-spap cells)
– | 3.8 ± 1.7 nM | 0.0011 s⁻¹ | 283000 M⁻¹ s⁻¹ | – | – | – | – | 3.6 nM | 251 nM | 20 nM | 33.6 ± 0.1 nM | 6.55 nM | 5.5 ± 1.2 nM | 89.9 ± 11.6 nM | 63.9 ± 16.5 nM | CCCn1c(=O)c2[nH]c(-c3ccc(OCC(=O)NCc4ccc(F)cc4)cc3)nc2n(CCC)c1=O [Compound 21, 2-(4-(2,6-dioxo-1,3-dipropyl-2,3,6,7-tetrahydro-1H-purin-8-yl)phenoxy)-N-(4-fluorobenzyl)acetamide] | – | – | –
6.1 ± 1.6 min | 7.5 ± 3.9 nM | 0.00273 s⁻¹ | 367000 M⁻¹ s⁻¹ | – | – | – | – | 15.2 nM | 375 nM | 21.1 nM | 64.4 ± 21.2 nM | 5.23 nM | 8.5 ± 1.1 nM | 63.9 ± 16.5 nM | 27.3 ± 4.9 nM | CCCn1c(=O)c2[nH]c(-c3ccc(OCC(=O)N[C@H](C)c4ccccc4)cc3)nc2n(CCC)c1=O [Compound 24, (R)-2-(4-(2,6-dioxo-1,3-dipropyl-2,3,6,7-tetrahydro-1H-purin-8-yl)phenoxy)-N-(1-phenylethyl)acetamide] | – | – | –
10 ± 2.3 min | 8.6 ± 3 nM | 0.00162 s⁻¹ | 183000 M⁻¹ s⁻¹ | – | – | – | – | 8.11 nM | 165 nM | 20.2 nM | 21 ± 1.8 nM | 10.4 nM | 8.2 ± 2.5 nM | 156 ± 15 nM | 23.7 ± 4.9 nM | CCCn1c(=O)c2[nH]c(-c3ccc(OCC(=O)N[C@@H](C)c4ccccc4)cc3)nc2n(CCC)c1=O [Compound 25, (S)-2-(4-(2,6-dioxo-1,3-dipropyl-2,3,6,7-tetrahydro-1H-purin-8-yl)phenoxy)-N-(1-phenylethyl)acetamide] | – | – | –
